Data set [1] concerns the target E. coli PNP (Escherichia coli, UniProt P0ABP8). To be noted: abrogates E. coli PNP activity; cited from earlier work.
For data set [2], the target named is T1, human enzyme (PNP) (Homo sapiens, UniProt P00491).
T1 sequence (P00491 1-289): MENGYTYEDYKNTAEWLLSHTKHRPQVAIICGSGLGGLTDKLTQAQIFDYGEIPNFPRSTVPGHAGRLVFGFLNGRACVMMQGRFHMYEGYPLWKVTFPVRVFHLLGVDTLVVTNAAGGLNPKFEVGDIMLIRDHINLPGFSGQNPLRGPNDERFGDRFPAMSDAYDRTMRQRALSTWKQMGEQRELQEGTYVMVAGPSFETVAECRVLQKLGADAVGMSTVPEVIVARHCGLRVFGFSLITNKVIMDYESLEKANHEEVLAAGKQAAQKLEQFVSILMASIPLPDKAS
The conditions noted are these: cited from earlier work.

The test system of data set [3] is human glioma tumors. Description: HSV-PNP intratumoral inoculation of human glioma tumors in mice. The data set is classed as in vivo. To be noted: intratumoral MeP-dR 168 mg/kg daily x 3 days with HSV-PNP. As for the experimental part: Using HSV-PNP, a composition including 17 million pfu of the virus in 50 microliters is administered on day 16 following establishment of human glioma tumors in mice. HSV-PNP by itself slows growth of tumors following intratumoral inoculation, approximately 20 days delay to one tumor doubling.

Data set [4] relates to D54 glioma tumors (MuLv-PNP transduced). Description: D54 tumors expressing E. coli PNP from MuLV, prodrug treatment in vivo. To be noted: MeP-dR. As for the experimental part: For example, in one in vivo tumor model, tumors are established in animals by subcutaneous implantation of about 10^7 cells into the axillary region of 6-10 mice. Athymic (or scid) mice are used for models of certain human tumors including cells such as D54, HCT-15, and SR475 head/neck. Syngeneic models are also used. For instance, mouse tumors are established using Colon 26 and G26 glioma cells.
The resulting solid tumors are measured twice weekly in two dimensions and the mass calculated using the formula for a prolate ellipsoid, [length (mm)×width^2 (mm)]/2=mg, assuming unit density. The data will permit the determination of a tumor volume doubling time, % “no takes”, and % spontaneous regressions.
PNP expression in MuLv was driven by an SV40 promoter. Mice are given non-absorbable antibiotics in their drinking water prior to treatment with high doses of MeP-dR (e.g. 168 mg/kg/d×3d) to minimize intestinal cleavage of the compound (Bharara, S., et al., 2005, Human Gene Therapy 16:339-347.). Antibiotics are not co:administered for lower doses of MeP-dR, or with less avid substrates such as fludarabine.

The test system of data set [5] is D54 glioma tumors (lentivirus PNP). Description: D54 tumors expressing E. coli PNP from lentivirus, prodrug treatment in vivo. Set-up: species or system human. The conditions noted are these: MeP-dR; 10%, 5%, 2.5% PNP expressing cells; p<0.05 (2.5%), p<0.005 (5% and 10%). An excerpt: Syngeneic models are also used.
D54 glioma tumors are established from a stable cell line expressing E. coli PNP by a strong, CMV-based promoter in a lentiviral vector. FIG. 10 illustrates results. Open Circles: Tumors established from 10% PNP expressing/90% non-expressing tumor cells; PNP activity 9600±1300 units on day 14. Open Triangles: 5% expressing, 95% non-expressing tumor cells; PNP activity 5500±1700 units. Open Squares: Tumors established from 2.5% expressing, 97.5% non-expressing (PNP activity 3600±530 units). Closed symbols depict growth of corresponding (10%, 5%, 2.5%) PNP tumors treated with vehicle (saline control). At least six animals are studied per group. Identically treated animals from each study arm are sacrificed just prior to initiation of MeP-dR therapy (day 14) to measure intratumoral PNP acitivity. […] These experiments test the influence of substantially higher PNP activities on bystander killing in vivo. PNP activity in 300 mg tumors comprised of 100% lentivirus transduced cells is found to be approximately 126,000 PNP units (one unit=1 nmole MeP-dR converted per mg tumor tissue per hour). When the level of E. coli PNP is studied using lentiviral expression, improvements in bystander killing are observed as shown in FIG. 10.
FIG. 12 depicts a study in which 100% of cells express E. coli PNP using lentivirus. Complete regression and cures of tumors (12 of 12) are obtained with F-araAMP following a 3 day treatment schedule. […] Adjusting the schedule of F-araAMP may also improve bystander killing in vivo (FIG. 16).
Tumors in which 100% of cells expressed E. coli PNP are treated with a maximally tolerated dose (MTD, 100 mg/kg schedule, open circles) or half the MTD (closed triangles). Six animals are included per treatment group. […] PNP activity in these tumors is 126,000±16,000 units on the day of drug therapy.
Tumors are established from an inoculum in which 10% of cells expressed E. coli PNP. PNP expression on the day of drug treatment is 14,200±681 PNP units. Anti-tumor efficacy is greater at 100 mg/kg F-araAMP (open circles) than at 50 mg/kg (closed triangles) or 25 mg/kg (open triangles) given over a standard 3 day schedule (q2h×5, q1d×3 days).
D54 glioma tumors are established with decreasing proportions of PNP expressing cells (and increasing non-expressing (parental) cells). (open symbols: F-araAMP therapy; closed symbols: no prodrug therapy; circles: 2.5%; triangles 5%, and squares 10% PNP transduced cells). F-araAMP was 100 mg/kg q2h×5, q1d×3.
Tumors comprised of 5% PNP expressing cells and 2 different fludarabine schedules are shown.

Data set [6] relates to HeLa cells. Description: Ad-PNP mediated cell killing in vitro, crystal violet staining. Format: cell-based, human. To be noted: MeP-dR 40 micrograms/milliliter, adenoviral MOI 0.1-100, stained 6 days post infection. The method, then:
Confluent HeLa cells are infected with Ad-PNP at various MOIs. MeP-dR is added at 40 micrograms/milliliter in one set of cells at 24 hours post infection. At 6 days post infection, all cultures are stained with Crystal Violet to visualize living cells.
FIG. 17 depicts results using an Ela deleted adenoviral vector encoding E. coli PNP as described herein.

The conditions of data set [7]: in vivo; cited from earlier work.

Sequence of E. coli PNP (P0ABP8 whole entry): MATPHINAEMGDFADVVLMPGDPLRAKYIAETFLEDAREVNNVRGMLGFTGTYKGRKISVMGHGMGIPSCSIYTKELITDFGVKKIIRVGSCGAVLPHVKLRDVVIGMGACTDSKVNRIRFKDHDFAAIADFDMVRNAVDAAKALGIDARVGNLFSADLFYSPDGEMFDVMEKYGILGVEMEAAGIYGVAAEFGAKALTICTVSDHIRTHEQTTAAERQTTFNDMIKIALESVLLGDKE

One may read the Ki as a dissociation constant, usually derived from enzyme kinetics or from competition with a known ligand. As to `Nc1ncnc2c([C@@H]3O[C@H](CO)[C@@H](O)[C@H]3O)[nH]nc12` [Formycin A], the Ki in data set [1] is 5 µM. The “activity against the human enzyme” value in data set [2] was “inactive”.
With `Cc1ncnc2c1ncn2[C@H]1C[C@H](O)[C@@H](CO)O1` [MeP-dR, 9-(2-deoxy-beta-D-ribofuranosyl]-6-methylpurine], in data set [3], the “anti-tumor effect with HSV-PNP” value was “improves tumor regressions and arrest of tumor growth”. Besides, the “anti-tumor effect vs non-treatment groups” value in data set [4] (20% PNP-expressing / 80% parental cells, p<0.002) is “significantly different from non-treatment groups”. Further, the tolerability of treatments result in data set [4] (20% PNP (MuLv) and parental tumors) was “well tolerated without limiting weight loss or lethality”. In addition, in data set [5], the “antitumor effects vs non-treatment groups” value is reported as “significantly different from non-treatment groups”. In addition, the “cell killing in combination with Ad-PNP” value in data set [6] is “sufficient to eliminate populations of cancer cells”. Besides, in data set [7], the circulating half life was around 20 min and the “half life in serum” value is 15 to 20 min.
